Article PMC9692703 (2022)

Legend:
[1] = system: A30/T30 duplex (DNA, duplex) AAAAAAAAAAAAAAAAAAAAAAAAAAAAAA/TTTTTTTTTTTTTTTTTTTTTTTTTTTTTT; assay: SGI staining fluorescence; details: 100 mM NaCl; 10 mM PB pH 7; 100 nM DNA, 0.5x SGI
[2] = system: Adenosine aptamer (Aptade), 4 bp (DNA, aptamer) ACCTGGGGGAGTATTGCGGAGGAAGGT; assay: ThT fluorescence enhancement; details: 100 mM NaCl, 10 mM MgCl2; 10 mM PB pH 7; 100 nM aptamer

SMILES: CCCN(CCCN(C)C)c1cc(C=C2Sc3ccccc3N2C)c2ccccc2[n+]1-c1ccccc1
- binding [1]: yes

SMILES: Cc1ccc2c(c1)sc(-c1ccc(N(C)C)cc1)[n+]2C
- binding [2]: yes
